Paper PMC8512011, “A Semi Rigid Novel Hydroxamate AMPED-Based Ligand for ^89Zr PET Imaging” (Molecules, 2021)
“Also recorded” adds a separate entry of the source.

Experiments:
[1] = In vitro stability of ^89Zr complexes in human serum (radio-TLC / iTLC); type: in vitro ADME; details: for % of ^89Zr complexed over total activity: human serum (HS)
Experimental: (§1) Stability studies were performed on ^89Zr labeled AAZTHAS and AAZTHAG to test the effect of the pendant arm length on complex stability. The stability of the two ^89Zr-complexes was investigated by radio-TLC after incubation for 72 h at 37 °C in formulation buffer, EDTA 5 mM (1000-fold excess), and human serum (HS).
(§2) After the purification step and analysis of the radioactive complex via radio-HPLC, the stability assessment of the complex at different time points and in different solutions was carried out. ^89Zr-AAZTHAS and ^89Zr-AAZTHAG were dissolved in formulation buffer, EDTA 5 mM, and human serum in 1:5 v/v ratio and were incubated at 37 °C up to 96 h. […] At each time point the stability was evaluated by radio-iTLC (Elution solution 1) using an instant thin-layer chromatographic strip (iTLC, Agilent).

[2] = Small animal PET/CT static scans at different time points; type: in vivo, healthy female nude mice; details: six time points 30 min to 24 h, n = 3
Experimental: Based on the good preliminary in vitro stability results, we investigated the behavior of ^89Zr-AAZTHAG in vivo in healthy female nude mice (n = 3) by acquiring PET/CT images at six different time points (30 min, 3 h, 6 h, 9 h, 12 h, and 24 h), and mice were then sacrificed 24 h p.i. to perform a biodistribution study.
(§3) In order to study the biodistribution and the in vivo stability of the ^89Zr-AAZTHAG, 8 weeks old pathogen-free female athymic Nude-Foxn1nu/nu mice (Charles River Laboratories, Sulzfeld, Germany) (n = 3) were injected via a catheter in the tail vein with 2.9 ± 0.1 MBq of ^89Zr-AAZTHAG in 300 μL NaCl 0.9% solution, and imaged at different time points (30 min, 3 h, 6 h, 9 h, 12 h, 24 h) via PET/CT static acquisition using an Inveon Small Animal PET/CT scanner (Siemens, Knoxville, TN, USA).

[3] = Ex vivo biodistribution (tracer accumulation in organs, γ-counter) 24 h p.i.; set-up: species or system female athymic Nude-Foxn1nu/nu mice; details: i.v. tail vein, n = 3, ± SD
Experimental: as §3
Biodistribution studies were also performed to assess the in vivo distribution of the ^89Zr-AAZTHAG complex and evaluate its in vivo stability. After sacrifice, the mice by anesthesia, blood, and other selected organs were collected, weighed, and the activity was measured by a γ-counter. The tracer accumulation in selected organs was expressed as a percentage of injected dose per gram of tissue (%ID/g).

[4] = In vitro stability of ^89Zr complexes in EDTA solution (transchelation challenge, radio-TLC / iTLC); type: physicochemical; set-up: dose or concentration left out as unconfirmed; details: 37 °C
Experimental: Stability studies were performed on ^89Zr labeled AAZTHAS and AAZTHAG to test the effect of the pendant arm length on complex stability. […]
as §2

[5] = In vitro stability of ^89Zr complexes in formulation buffer (radio-TLC / iTLC); type: physicochemical; details: formulation buffer (3 mM gentisic acid + 0.25 M NaOAc, pH 5.5), 37 °C
Experimental: as §1, §2

CN(O)C(=O)CCCC(=O)NC1(C)CN(C(=O)CCCC(=O)N(C)O)CCN(C(=O)CCCC(=O)N(C)O)C1 [^89Zr-AAZTHAG, metal not drawn]
Time for which the ^89Zr-complex is stable in HS ([1]; human serum): at least 4 h
% of ^89Zr complexed over total activity ([1]; 37 °C, Day 0): 92.0 ± 11.3%
% of ^89Zr complexed over total activity ([1]; 37 °C, Day 1): 77.7 ± 18.6%
% of ^89Zr complexed over total activity ([1]; 37 °C, Day 2): 76.9 ± 15.4%
% of ^89Zr complexed over total activity ([1]; 37 °C, Day 3 (72 h)): 87 ± 5%
% of ^89Zr complexed over total activity ([1]; 37 °C, Day 3 (72 h), listed as AAZTHAG): 86.4 ± 5.5%
Excretion route seen in PET/CT images [2]: hepatobiliary and renal excretion
Signal in bones during PET acquisition (release of Zr-89) [2]: low signal in bones
Radioactivity accumulated in bladder ([3]; Bladder): 0.049 ± 0.010 %ID/g
Radioactivity accumulated in blood ([3]; Blood): 0.007 ± 0.005 %ID/g
Radioactivity accumulated in brain ([3]; Brain): 0.002 ± 0.001 %ID/g
Radioactivity accumulated in femur ([3]; Femur): 0.193 ± 0.108 %ID/g
Radioactivity accumulated in heart ([3]; Heart): 0.010 ± 0.004 %ID/g
Radioactivity accumulated in kidney ([3]; Kidney): 0.575 ± 0.199 %ID/g
Radioactivity accumulated in large intestine ([3]; Large Intestine): 0.020 ± 0.010 %ID/g
Radioactivity accumulated in liver ([3]; Liver): 0.041 ± 0.010 %ID/g
Radioactivity accumulated in lung ([3]; Lung): 0.021 ± 0.007 %ID/g
Radioactivity accumulated in muscle ([3]; Muscle): 0.006 ± 0.002 %ID/g
Radioactivity accumulated in pancreas ([3]; Pancreas): 0.016 ± 0.008 %ID/g
Radioactivity accumulated in small intestine ([3]; Small Intestine): 0.012 ± 0.006 %ID/g
Radioactivity accumulated in spleen ([3]; Spleen): 0.029 ± 0.005 %ID/g
Radioactivity accumulated in stomach ([3]; Stomach): 0.014 ± 0.005 %ID/g
Radioactivity accumulated in tail ([3]; Tail): 0.040 ± 0.013 %ID/g
% of ^89Zr complexed over total activity ([4]; Day 0): 30.6 ± 30.3%
% of ^89Zr complexed over total activity ([4]; Day 1): 4.4 ± 3.9%
% of ^89Zr complexed over total activity ([4]; Day 2): 2.4 ± 0.1%
% of ^89Zr complexed over total activity ([4]; Day 3): 3.2 ± 2.6%
% of ^89Zr complexed over total activity ([5]; Day 0): 91.5 ± 10.6%
% of ^89Zr complexed over total activity ([5]; Day 1): 83.0 ± 6.5%
% of ^89Zr complexed over total activity ([5]; Day 2): 78.1 ± 13.8%
% of ^89Zr complexed over total activity ([5]; Day 3 (72 h)): 73 ± 5%
% of ^89Zr complexed over total activity ([5]; Day 3 (72 h), listed as AAZTHAG): 73.0 ± 5.2%

CN(O)C(=O)CCC(=O)NC1(C)CN(C(=O)CCC(=O)N(C)O)CCN(C(=O)CCC(=O)N(C)O)C1 [^89Zr-AAZTHAS, metal not drawn]
% of ^89Zr complexed over total activity ([1]; 37 °C, Day 0): 71.0%
% of ^89Zr complexed over total activity ([1]; 37 °C, Day 1): 76.8%
% of ^89Zr complexed over total activity ([1]; 37 °C, Day 2): 59.2%
% of ^89Zr complexed over total activity ([1]; 37 °C, Day 3 (72 h)): 46%
Behaviour of the complex on incubation in HS (precipitation) ([1]; human serum, 37 °C): tends to precipitate over time; also recorded: precipitates
% of ^89Zr complexed over total activity ([4]; Day 0): 15.1%
% of ^89Zr complexed over total activity ([4]; Day 1): 1.0%
% of ^89Zr complexed over total activity ([4]; Day 2): 1.6%
% of ^89Zr complexed over total activity ([5]; Day 0): 71.0%
% of ^89Zr complexed over total activity ([5]; Day 1): 63.3%
% of ^89Zr complexed over total activity ([5]; Day 2): 62.3%
% of ^89Zr complexed over total activity ([5]; Day 3 (72 h)): 42%
